The subject of experiment [1] is L1 retrotransposition reporter in HeLa cells. Put plainly: LINE-1 dual luciferase retrotransposition assay in HeLa cells. Conditions: for IC50: HeLa cells, stable dual luciferase L1 reporter, normalized to cell viability, n = 3 wells. It is filed as cell-based, human.
For experiment [2], the target named is T1, ORF2p core (Homo sapiens, UniProt O00370).
T1 construct: His6-MBP-3C-ORF2p (238-1061, ORFeus-Hs) in pET41; His6-MBP (3C protease site) (N, cleaved yes); made in house; host or cells: E. coli
Put plainly: Homogeneous time-resolved fluorescence (HTRF) ORF2p RT assay. Format: biochemical. On the procedure:
(§1) ORF2p core was preincubated with a template:primer containing a single site for the incorporation of a given nucleotide analogue. The primer/template sequence shown in the panel a illustrates the case of single incorporation of 3TC, with a single G for incorporation; the incoming template sequence for entecavir and carbovir has a single C, and for d4T a single A, each at position labeled “N”. Reactions were incubated for one minute at 37 °C with a 100 nM dNTP mixture and increasing concentrations of listed inhibitors. IC50 index, fold = IC50 (drug, µM) ÷ [dNTP] […] Fluorescein-labeled dNTPs (here, uracil-TP) are incorporated by ORF2p into a biotinylated primer, here shown against a poly(A) template. Detection is then achieved using FRET with a terbium cryptate labeled streptavidin, and the time-resolved technique and time-delayed emission from terbium cryptate reduces background from other fluorescent chemicals in the mix. In the presence of ORF2p RT inhibitors (RTIs), base incorporation is stopped and FRET signal is lost. […]
(§2) ORF2p reverse transcriptase activity assays […]
For HTRF RT assays157, 25 nM ORF2p core and 12. 5 nM t em plat e: primer was incubated at 25°C for 60 minutes
with 10 nM of fluorescein- 12- dUTP (Thermo), 1 µM each (dATP,dCTP,dGTP), and test compound in a 15 µL
reaction with buffer containing 50 mM Tris-HCl, 50 mM KCl, 10 mM MgCl2, 10 mM DTT, pH 8.1, and 1% final
On the technique in general: TR-FRET usually uses a lanthanide donor and a delayed reading to cut background.

For experiment [3], the target named is T1, ORF2p core. Put plainly: Gel-based L1 RT assay, ORF2p core, inhibition by NRTI triphosphates. Format: biochemical. The settings on record: 100 nM dNTP mixture; for IC50: NTP forms of NRTIs, one minute at 37 °C. On the procedure:
as §1, §2
Gel-based RT activity assays consisted of pr e-incubating RTs with annealed DNA/RNA, DNA/DNA, or RNA/RNA 5’- end- radiolabeled or 5’-end-Cy5- o r FAM-labeled template:primer duplex or hybrid duplex and, where indicated, inhibitor in the presence of 0.1- 1 μ M dNTP or NTP mixture, 0.25 mM EDTA, 50 mM NaCl, and 25 mM Tris (pH 8) for 10 min at 37°C. Labeled nucleic acids were purchased from Dharmacon or IDT. Unless otherwise indicated, 15 μL reactions were initiated by the addition of 1.3 mM MgCl2, incubated for 10 min at 37 °C, and then stopped by the addition of 15 μL of formamide/EDTA (25 mM) mixture and incubated at 95 °C for 10 min. 3 μL reaction samples were subjected to denaturing 8 M urea 20% PAGE to resolve products followed by signal quantification (ImageQuant 5.2, GE Healthcare Bio- Sciences) through phosphorimaging (Amersham Typhoon 5, Cytivia). Scanned gel images are […]
minor products; original images are provided in an Extended Data file. […]

The mark [4] stands for this setting: HTRF, NRTIs as triphosphates, n = 3 wells.

Like-named read-outs stand apart in the source and are kept apart here. Where only a bound is given, the exact number is not on record here.

One may read the IC50 as the concentration needed to halve the response being measured. Turning to `Cc1cn([C@H]2C[C@H](N=[N+]=[N-])[C@@H](CO)O2)c(=O)[nH]c1=O` [AZT, zidovudine], the half-inhibitory concentration (IC50) was 1.8 µM in experiment [1] (read-out: IC50) and 0.2 to 0.75 µM in experiment [2] (HTRF, NRTI NTPs). Also, the “fold change in ORF2p inhibitory activity compared with ddTTP and d4T” value in experiment [2] is given as “greater than 20 fold”.
In the case of `Nc1nc2c(ncn2[C@H]2C=C[C@@H](CO)C2)c(=O)[nH]1` [Carbovir, carbovir], in experiment [3], the “IC50 index, fold = IC50 (drug, µM) ÷ [dNTP] (natural counterpart, 0.1 µM)” value turned out to be 64 fold and the IC50 fell in the range of 5 to 7 µM.
For the molecule `CC(C)Nc1cccnc1N1CCN(C(=O)c2cc3cc(NS(C)(=O)=O)ccc3[nH]2)CC1` [Delavirdine, delavirdine], the IC50 in experiment [2] (setting [4]) is greater than 30 µM.
Molecule `O=C1Nc2ccc(Cl)cc2[C@@](C#CC2CC2)(C(F)(F)F)O1` [Efavirenz, efavirenz] gave an IC50 in experiment [2] (setting [4]) greater than 30 µM.
Turning to `C=C1[C@H](CO)[C@@H](O)C[C@@H]1n1cnc2c(=O)[nH]c(N)nc21` [Entecavir, entecavir], in experiment [3], the “IC50 index, fold = IC50 (drug, µM) ÷ [dNTP] (natural counterpart, 0.1 µM)” value was 5.4 fold and the IC50 fell in the range of 0.4 to 0.6 µM.
For the molecule `Cc1cc(C#N)cc(C)c1Oc1nc(Nc2ccc(C#N)cc2)nc(N)c1Br` [Etravirine, etravirine], the IC50 in experiment [2] (setting [4]) was greater than 30 µM.
In experiment [1] (Homo sapiens, HeLa), `Nc1nc(=O)n([C@@H]2CS[C@H](CO)O2)cc1F` [FTC, emtricitabine] yielded an IC50 of 1.1 µM.
As to `O=C(O)P(=O)(O)O` [Foscarnet, foscarnet], the IC50 in experiment [2] (setting [4]) is greater than 100 µM.
For the molecule `Cc1ccnc2c1NC(=O)c1cccnc1N2C1CC1` [Nevirapine, nevirapine], the concentration for half-maximal inhibition (IC50) is greater than 30 µM in experiment [1] (read-out: IC50) and greater than 1000 µM in experiment [2] (setting [4]). For the same molecule, the “inhibition of ORF2p” value in experiment [2] (HTRF, 1 mM) is reported as “no inhibition”.
On to `Cc1cc(/C=C/C#N)cc(C)c1Nc1ccnc(Nc2ccc(C#N)cc2)n1` [Rilpivirine, rilpivirine], for which, in experiment [2] (setting [4]), the IC50 was greater than 30 µM.
In the case of `CC(C)OC(=O)[C@H](C)N[P@](=O)(OC[C@H]1O[C@@H](n2ccc(=O)[nH]c2=O)[C@](C)(F)[C@@H]1O)Oc1ccccc1` [Sofosbuvir, sofosbuvir], the “inhibition in cell-based L1 assays” value in experiment [1] is given as “no inhibition”. In experiment [1] (Homo sapiens, HeLa), this molecule gave an IC50 greater than 100 µM.
As for `C[C@H](Cn1cnc2c(N)ncnc21)OCP(=O)(O)O` [Tenofovir, tenofovir], in experiment [1] (Homo sapiens, read-out: IC50), the half-inhibitory concentration (IC50) stood at 3.2 µM.
The molecule `Cc1cn([C@H]2CC[C@@H](CO)O2)c(=O)[nH]c1=O` [ddT, dideoxythymidine] displayed an IC50 in experiment [2] (HTRF, NRTI NTPs) of less than 0.01 µM.

The values above are taken from article PMC10830420, “Structures, functions and adaptations of the human LINE-1 ORF2 protein” (Nature, 2023).
